Results: patent US20060258692A1, “Quinazolinone compositions for regulation of gene expression related to pathological processes” (priority 2002, published 2006)

Experiments:
[1] = system: IGFBP-1 in rat primary hepatocytes; test: IGFBP-1 synthesis in rat primary hepatocytes (Western blot); assay type: cell-based
IGFBP-1 in HepG2 cells = test: IGFBP-1 gene expression and secretion in HepG2 cells, dose and time response
[2] = system: rats with TAA-induced liver fibrosis
IGFBP-1 gene expression = test: Northern blot and in situ hybridization of liver biopsies with IGFBP-1 probe
[3] = system: rats insulted with dimethylnitrosamine (DMN) or thioacetamide (TAA); conditions: cited from earlier work
IGFBP-3 mRNA = test: Northern blot of liver biopsies with IGFBP-3 probe
[4] = system: collagen α1(I) gene expression; conditions: skin fibroblasts in culture, incl. from scleroderma or cGVHD patients; cited from earlier work
[5] = system: PRL-1 and Apolipoprotein AIV; test: Northern blot validation of Atlas microarray results in liver biopsies; assay type: in vivo, rat; conditions: TAA vs TAA plus halofuginone
HepG2 cells = test: HepG2 cell proliferation (cell number); conditions: 24 h, halofuginone at concentration that affect IGFBP-1 synthesis
stellate cells (HSC-T6) = test: Stellate cell motility assay (phagokinetic tracks); conditions: conditioned medium of HepG2 treated with 50 nM halofuginone (contains IGFBP-1) added to HSC
[6] = system: IGFBP-1 in HepG2, Huh-7, Hep3B, Det551, ROS and HSC cells; test: IGFBP-1 synthesis in various cell types (Northern and Western blot); assay type: cell-based, human; rat; conditions: 50 nM halofuginone, serum-free medium, hepatocyte lines vs fibroblasts, osteoblasts
[7] = system: TAA-induced cirrhotic liver; test: Liver regeneration after 70% partial hepatectomy in TAA-induced cirrhotic rats

insulin: insulin, comparator incubated with rat primary hepatocytes
IGFBP-1 synthesis (Western blot) ([1]; insulin, 24 h (10 nM, 100 nM elsewhere in the source)): reduction in IGFBP-1 synthesis

C[C@@H]1C[C@@H]([C@H](O)CC2CC(=O)NC(=O)C2)C(=O)[C@@H](C)C1 [cyclohexamide]
effect on halofuginone-dependent increase in IGFBP-1 gene expression (IGFBP-1 in HepG2 cells; 10 μg/ml cyclohexamide with 50 nM halofuginone, 24 h): annulled

O=C(CC1NCCC[C@H]1O)Cn1cnc2cc(Br)c(Cl)cc2c1=O (stereo in doubt) [halofuginone, 7-bromo-6-chloro-3-[3-(3-hydroxy-2-piperidinyl)-2-oxopropyl]-4(3H)-quinazolinone]
Ishak staging of fibrosis (grade) ([2]; TAA 200 mg/kg twice weekly plus halofuginone 5 ppm in the diet, 4 weeks, TAA alone grade 5-6): 1-2 | αSMA-positive (activated) stellate cells ([2]; TAA plus halofuginone given orally (5 ppm in diet), 4 weeks, immunohistochemistry): only traces | collagen level (Sirius red) ([2]; TAA plus halofuginone, 4 weeks): low levels of collagen | level of TIMP-2 ([2]; TAA plus halofuginone, 4 weeks, compared with TAA-treated rats): reduced | collagen α1(I) gene expression by remaining stellate cells ([2]; TAA plus halofuginone, 4 weeks, in situ hybridization): low levels | ECM, collagen, αSMA stellate cells, collagen α1(I) expression, TIMP-2 ([2]; rat, in vivo): No changes | effect on TAA-induced down-regulation of IGFBP-1 gene expression (Northern blot) (IGFBP-1 gene expression; after 2 and 4 weeks of treatment): prevented the TAA-induced down-regulation | effect on TAA-induced reduction in IGFBP-1 gene expression (Northern blot) (IGFBP-1 gene expression; after one week of TAA treatment): without any effect | level of IGFBP-1 mRNA (Northern blot) (IGFBP-1 gene expression; halofuginone alone): slight effect | IGFBP-1 gene expression by in situ hybridization, TAA-induced decrease (IGFBP-1 gene expression; liver sections after 4 weeks, TAA plus halofuginone): prevented | fibrotic condition ([3]; given to rats with established fibrosis): almost complete resolution | HSC activation, increase in collagen α1(I) gene expression and collagen deposition ([3]; rats insulted with DMN or TAA): prevent HSC activation and abolish the increase in collagen α1(I) gene expression and collagen deposition | IGFBP-3 mRNA levels (IGFBP-3 mRNA; after 1 week of treatment, any of the groups): No changes | effect on TAA-induced increase in IGFBP-3 level (IGFBP-3 mRNA; after 2 and 4 weeks): partially prevented | IGFBP-3 mRNA levels (IGFBP-3 mRNA; halofuginone alone, any time-points examined): no effect | IGFBP-1 synthesis (Western blot) ([1]; halofuginone 1 nM, 24 h): increased the synthesis of IGFBP-1 | collagen α1(I) gene expression and collagen production [4]: attenuated | PRL-1 and Apolipoprotein AIV expression by Northern blotting [5]: confirmed the Atlas microarray findings | cell proliferation (cell number) (HepG2 cells): significant reduction in cell proliferation | HSC cell motility (track area) (stellate cells (HSC-T6)): significant inhibition in cell motility | IGFBP-1 gene expression (Northern blot) (IGFBP-1 in HepG2 cells; 10 nM halofuginone, 24 h, further increase at higher concentrations, no expression without halofuginone): increased IGFBP-1 gene expression | time after halofuginone treatment at which increased IGFBP-1 gene expression was observed (IGFBP-1 in HepG2 cells; 50 nM halofuginone): 6 h | time after which IGFBP-1 content in the conditioned media increased (IGFBP-1 in HepG2 cells; 50 nM halofuginone): 10 to 15 h | IGFBP-1 in conditioned medium after halofuginone removal (IGFBP-1 in HepG2 cells; 50 nM halofuginone for 11 h, washed, fresh medium for additional 13 h, compared with untreated cells): high levels of IGFBP-1 | incubation time needed for increase in IGFBP-1 secretion (IGFBP-1 in HepG2 cells; 50 nM halofuginone, medium replaced, IGFBP-1 detected 23 h later): one hour of incubation with halofuginone was sufficient | concentration at which an increase in the level of IGFBP-1 in conditioned medium starts (Western blot) (IGFBP-1 in HepG2 cells; HepG2, 24 h): ≥ 50 nM | cell types responding with IGFBP-1 gene expression and synthesis [6]: Only cells of the hepatocyte origin demonstrated increased IGFBP-1 gene expression and synthesis | PCNA labeling index ([7]; eight weeks of halofuginone after TAA, 48 hours after 70% PHx, untreated animals 18.8±2.9): 31.4±6.4 | restituted liver mass ([7]; eight weeks of halofuginone in diet after TAA, 48 hours after 70% PHx, control food group 13.7±4.5, p<0.05): 24.2±5.7% | liver Ishak staging ([7]; halofuginone treatment of TAA cirrhotic rats): decrease
